Like-named read-outs stand apart in the source and are kept apart here.
Assays:
P. falciparum NF54 = assay: In vitro microplate 3H-hypoxanthine incorporation assay against P. falciparum NF54; type: cell-based, Plasmodium falciparum; conditions: for S.I. = IC50 (Cyt.)/IC50 (P.f. NF54): L-6 cytotoxicity over P.f. NF54; for IC50: Plasmodium falciparum, NF54 strain sensitive to chloroquine and pyrimethamine, erythrocytic stages, average of four determinations, read-out: P. Falciparum NF54 IC50
Experimental: (§1) Compounds were tested for their activities against strains of P. falciparum and T. b. rhodesiense via microplate assays. Their cytotoxicity was determined with rat skeletal myoblasts (L-6 cells). Chloroquine and melarsoprol served as standards (Table 1).
(§2) In vitro activity against erythrocytic stages of P. falciparum was determined using a ^3H-hypoxanthine incorporation assay, using the drug-sensitive NF54 strain [21] or the chloroquine- and pyrimethamine-resistant K1 strain [22]. Compounds were dissolved in DMSO at 10 mg/mL and added to parasite cultures incubated in RPMI 1640 medium without hypoxanthine, supplemented with HEPES (5.94 g/L), NaHCO3 (2.1 g/L), neomycin (100 U/mL), Albumax (5 g/L) and washed human red cells A+ at 2.5% hematocrit (0.3% parasitemia). Serial drug dilutions of 11 three-fold dilution steps covering a range from 100 to 0.002 µg/mL were prepared. The 96-well plates were incubated in a humidified atmosphere at 37 °C; 4% CO2, 3% O2, 93% N2. After 48 h, 0.05 mL of ^3H-hypoxanthine (=0.5 µCi) was added to each well of the plate. The plates were incubated for an additional 24 h under the same conditions. The plates were then harvested with a Betaplate cell harvester (Wallac, Zurich, Switzerland). The red blood cells were transferred onto a glass fiber filter and washed with distilled water. The dried filters were inserted into a plastic foil with 10 mL of scintillation fluid and counted in a Betaplate liquid scintillation counter (Wallac, Zurich, Switzerland). IC50 values were calculated from sigmoidal inhibition curves by linear regression using Microsoft Excel. Chloroquine (Sigma C6628) was used as control.

[1] = tested on: T. b. rhodesiense STIB 900; assay: In vitro microplate resazurin assay against T. brucei rhodesiense; type: cell-based, Trypanosoma brucei rhodesiense; conditions: for S.I. = IC50 (Cyt.)/IC50 (T.b.r.): L-6 cytotoxicity over T.b.r.; for IC50: Trypanosoma brucei, read-out: T. Brucei Rhodesiense IC50
Experimental: as §1
Minimum essential medium (50 µL) supplemented with 25 mM HEPES, 1 g/L additional glucose, 1% MEM nonessential amino acids (100×), 0.2 mM 2-mercaptoethanol, 1 mM Na-pyruvate and 15% heat inactivated horse serum was added to each well of a 96-well microtiter plate. Serial drug dilutions of 11 three-fold dilution steps covering a range from 100 to 0.002 μg/mL were prepared. Then, 4 × 10^3 bloodstream forms of T. b. rhodesiense STIB 900 in 50 µL was added to each well and the plate incubated at 37 °C under a 5% CO2 atmosphere for 70 h. Ten microliters of resazurin solution (resazurin, 12.5 mg in 100 mL double-distilled water) was then added to each well and incubation continued for an additional 2–4 h. The plates were then read with a Spectramax Gemini XS microplate fluorometer (Molecular Devices Cooperation, Sunnyvale, CA, USA) using an excitation wavelength of 536 nm and an emission wavelength of 588 nm. Data were analyzed with the graphic program Softmax Pro (Molecular Devices Cooperation, Sunnyvale, CA, USA), which calculated IC50 values by linear regression and 4-parameter logistic regression from the sigmoidal dose inhibition curves. Melarsoprol (Arsobal Sanofi-Aventis, received from WHO) was used as control.

[2] = In vitro cytotoxicity with L-6 cells; type: cell-based, rat
Experimental: as §1
Assays were performed in 96-well microtiter plates, each well containing 0.1 mL of RPMI 1640 medium supplemented with 1% L-glutamine (200 mM) and 10% fetal bovine serum and 4000 L-6 cells (a primary cell line derived from rat skeletal myoblasts, ATCC CRL-1458™). Serial drug dilutions of 11 three-fold dilution steps covering a range from 100 to 0.002 μg/mL were prepared. After 70 h of incubation, the plates were inspected under an inverted microscope to assure the growth of the controls and sterile conditions. Then, 0.01 mL resazurin solution (resazurin, 12.5 mg in 100 ml double-distilled water) was added to each well and the plates incubated for another 2 h. The plates were read with a Spectramax Gemini XS microplate fluorometer (Molecular Devices Cooperation, Sunnyvale, CA, USA) using an excitation wavelength of 536 nm and an emission wavelength of 588 nm. The IC50 values were calculated by linear regression from the sigmoidal dose inhibition curves using SoftmaxPro software (Molecular Devices Cooperation, Sunnyvale, CA, USA). Podophyllotoxin (Sigma P4405) was used as control.

P. falciparum K1 = assay: In vitro microplate 3H-hypoxanthine incorporation assay against P. falciparum K1; type: cell-based, Plasmodium falciparum; conditions: for S.I. = IC50 (Cyt.)/IC50 (P.f. K1): L-6 cytotoxicity over P.f. K1; for IC50: Plasmodium falciparum, K1 strain resistant to chloroquine and pyrimethamine, average of four determinations, read-out: P. Falciparum K1 IC50
Experimental: as §1, §2

[3] = STIB 900 bloodstream forms, average of four determinations

Row | SMILES | S.I. = IC50 (Cyt.)/IC50 (P.f. NF54) (P. falciparum NF54) | IC50 (P. falciparum NF54) | S.I. = IC50 (Cyt.)/IC50 (T.b.r.) [1] | IC50 [1, 3] | IC50 at 72 h ([2]; rat) | S.I. = IC50 (Cyt.)/IC50 (P.f. K1) (P. falciparum K1) | IC50 (P. falciparum K1) | IC50 [1] | IC50 at 72 h ([2]; rat skeletal myoblasts, average of four determinations, read-out: Cytotox. L-6 Cells IC50)
1 | CC(C)(C)n1nnnc1CN(CCN1CC2[C@H](c3ccccc3)CC(N3CCCCC3)(C[C@H]2c2ccccc2)C1)Cc1nnnn1C(C)(C)C (racemic) [Compound 15, rac-(6R,9R)-N,N-bis[(1-tert-Butyl-1H-tetrazol-5-yl)methyl]-2-[6,9-diphenyl-1-(piperidin-1-yl)-3-azabicyclo[3.2.2]nonan-3-yl]ethan-1-amine] | 5.62 | 742 nM | 3.21 | 1300 nM | 4170 nM |  |  |  | 
2 | CC(C)(C)n1nnnc1CNCCN1CC2[C@H](c3ccccc3)CC(N3CCCCC3)(C[C@H]2c2ccccc2)C1 (racemic) [Compound 14, rac-(6R,9R)-N-[(1-tert-Butyl-1H-tetrazol-5-yl)methyl]-2-[6,9-diphenyl-1-(piperidin-1-yl)-3-azabicyclo[3.2.2]nonan-3-yl]ethan-1-amine] | 8.76 | 1940 nM | 14.17 | 1200 nM | 17000 nM |  |  |  | 
3 | CC(C)(C)n1nnnc1[C@H](NCCN1CC2C(c3ccccc3)CC(N3CCCCC3)(CC2c2ccccc2)C1)c1ccccc1 (mixture of isomers) [Compound 12A, rac-N-[(1R)-(1-tert-Butyl-1H-tetrazol-5-yl])(phenyl)methyl]-2-[(6R,9R)-6,9-diphenyl-1-(piperidin-1-yl)-3-azabicyclo[3.2.2]nonan-3-yl]ethan-1-amine] | 11.2 | 252 nM | 1.29 | 2200 nM | 2830 nM |  |  |  | 
4 | Cc1ccc(S(=O)(=O)NCCN2CCC3(N4CCCCC4)C[C@H](c4ccccc4)C2[C@@H](c2ccccc2)C3)cc1 (racemic) [Compound 19, rac-(7R,8R)-4-Methyl-N-[2-(7,8-diphenyl-5-(piperidin-1-yl)-2-azabicyclo[3.2.2]nonan-2-yl)ethyl]benzenesulfonamide] | 18.7 | 577 nM | 9.39 | 1150 nM | 10800 nM |  |  |  | 
5 | CC(C)(C)n1nnnc1C(NCCN1CC2C(c3ccccc3)CC(N3CCCCC3)(CC2c2ccccc2)C1)c1ccccc1 (racemic) [Compound 12B, rac-N-[(1R)-1-tert-Butyl-1H-tetrazol-5-yl])(phenyl)methyl]-2-[(6S,9S)-6,9-diphenyl-1-(piperidin-1-yl)-3-azabicyclo[3.2.2]nonan-3-yl]ethan-1-amine] | 1.92 | 1330 nM | 1.68 | 1520 nM | 2560 nM |  |  |  | 
6 | NCCN1CCC2(N3CCCC3)C[C@H](c3ccccc3)C1[C@@H](c1ccccc1)C2 (racemic) [Compound 8, rac-(7R,8R)-2-[7,8-Diphenyl-5-(pyrrolidin-1-yl)-2-azabicyclo[3.2.2]nonan-2-yl]ethan-1-amine] |  |  | 22.8 | 1130 nM | 25800 nM | 47.8 | 540 nM |  | 
7 | Cc1ccc(S(=O)(=O)NCCN2CCC3(N4CCCC4)C[C@H](c4ccccc4)C2[C@@H](c2ccccc2)C3)cc1 (racemic) [Compound 20, rac-(7R,8R)-4-Methyl-N-{2-[7,8-diphenyl-5-(pyrrolidin-1-yl)-2-azabicyclo[3.2.2]nonan-2-yl]ethyl}benzenesulfonamide] | 14.7 | 487 nM | 11.0 | 647 nM | 7150 nM |  |  |  | 
8 | Nc1nc(N)nc(Nc2ccc([As]3SCC(CO)S3)cc2)n1 (centres unmarked) [MEL, melarsoprol, reference compound] |  |  | 864 |  |  |  |  | 9 nM | 7780 nM
9 | CC(C)(C)C(NCCN1CC2[C@@H](c3ccccc3)CC(N3CCCCC3)(C[C@@H]2c2ccccc2)C1)c1nnnn1C(C)(C)C (mixture of isomers) [Compound 11B, rac-(1R)-1-(1-tert-Butyl-1H-tetrazol-5-yl)-2,2-dimethyl-N-{2-[(6S,9S)-6,9-diphenyl-1-(piperidin-1-yl)-3-azabicyclo[3.2.2]nonan-3-yl]ethyl}propan-1-amine] | 4.99 | 1320 nM | 1.34 | 4920 nM | 6590 nM |  |  |  | 
10 | Cc1ccc(C(NCCN2CC3C(c4ccccc4)CC(N4CCCCC4)(CC3c3ccccc3)C2)c2nnnn2C(C)(C)C)cc1 (stereo in doubt) [Compound 13B, rac-N-[(1R)-(1-tert-butyl-1H-tetrazol-5-yl)(p-tolyl)methyl]-2-[(6S,9S)-6,9-diphenyl-1-(piperidin-1-yl)-3-azabicyclo[3.2.2]nonan-3-yl]ethan-1-amine] | 3.03 | 680 nM | 2.06 | 1000 nM | 2060 nM |  |  |  | 
11 | Cc1ccc([C@@H](NCCN2CC3C(c4ccccc4)CC(N4CCCCC4)(CC3c3ccccc3)C2)c2nnnn2C(C)(C)C)cc1 (mixture of isomers) [Compound 13A, rac-N-[(1R)-(1-tert-Butyl-1H-tetrazol-5-yl)(p-tolyl)methyl]-2-[(6R,9R)-6,9-diphenyl-1-(piperidin-1-yl)-3-azabicyclo[3.2.2]nonan-3-yl]ethan-1-amine] | 5.72 | 446 nM | 7.75 | 329 nM | 2550 nM |  |  |  | 
12 | O=S(=O)(c1ccc(Cl)cc1)N1CCC2(N3CCCC3)C[C@H](c3ccccc3)C1[C@@H](c1ccccc1)C2 (racemic) [Compound 18, rac-(7R,8R)-2-(4-Chlorobenzenesulfonyl)-7,8-diphenyl-5-(pyrrolidin-1-yl)-2-azabicyclo[3.2.2]nonane] | 10.4 | 606 nM | 5.28 | 1190 nM | 6290 nM |  |  |  | 
13 | CC(C)(C)C(NCCN1CC2[C@H](c3ccccc3)CC(N3CCCCC3)(C[C@H]2c2ccccc2)C1)c1nnnn1C(C)(C)C (mixture of isomers) [Compound 11A, rac-(1R)-1-(1-tert-Butyl-1H-tetrazol-5-yl)-2,2-dimethyl-N-{2-[(6R,9R)-6,9-diphenyl-1-(piperidin-1-yl)-3-azabicyclo[3.2.2]nonan-3-yl]ethyl}propan-1-amine] | 6.75 | 2980 nM | 3.04 | 6610 nM | 20100 nM |  |  |  | 
14 | NCCN1CC2[C@H](c3ccccc3)CC(N3CCCC3)(C[C@H]2c2ccccc2)C1 (racemic) [Compound 9, rac-(6R,9R)-2-[6,9-Diphenyl-1-(pyrrolidin-1-yl)-3-azabicyclo[3.2.2]nonan-3-yl]ethan-1-amine] |  |  | 21.7 | 420 nM | 9120 nM | 14.5 | 630 nM |  | 
